Laboratory results from PubChem BioAssay (NCI).
Values joined by “and” are separate entries in the source; they are usually repeats but may differ in a detail not shown here. Equal values may be shown once.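 Interpolation was linear, between the two tested concentrations surrounding the appropriate level; five concentrations were tested over 48 hours in 96-well plates. At the GI50, growth is halved. At the TGI there is no net growth.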

Columns and labels:
Test in all cases: NCI-60 cell line screen, 48 h
K-562 leukemia = test system: K-562 leukemia
SK-MEL-2 melanoma = test system: SK-MEL-2 melanoma
PC-3 prostate = test system: PC-3 prostate
SF-539 CNS = test system: SF-539 CNS
HL-60(TB) leukemia = test system: HL-60(TB) leukemia
OVCAR-8 ovarian = test system: OVCAR-8 ovarian
OVCAR-5 ovarian = test system: OVCAR-5 ovarian
UO-31 renal = test system: UO-31 renal
786-0 renal = test system: 786-0 renal
M14 melanoma = test system: M14 melanoma

| Structure (SMILES) | TGI (K-562 leukemia) | TGI (SK-MEL-2 melanoma) | TGI (PC-3 prostate) | TGI (SF-539 CNS) | TGI (HL-60(TB) leukemia) | TGI (OVCAR-8 ovarian) | TGI (OVCAR-5 ovarian) | TGI (UO-31 renal) | TGI (786-0 renal) | TGI (M14 melanoma) | GI50 (K-562 leukemia) | GI50 (SK-MEL-2 melanoma) | GI50 (PC-3 prostate) | GI50 (SF-539 CNS) | GI50 (HL-60(TB) leukemia) | GI50 (OVCAR-8 ovarian) | GI50 (OVCAR-5 ovarian) | GI50 (UO-31 renal) | GI50 (786-0 renal) | GI50 (M14 melanoma) |
| --- | --- | --- | --- | --- | --- | --- | --- | --- | --- | --- | --- | --- | --- | --- | --- | --- | --- | --- | --- | --- |
| O=P1(NCCCl)OCCCN1CCCl (stereo not drawn) | 466 µM | 419 µM | > 500 µM | 413 µM | 381 µM | 439 µM | 453 µM | 441 µM | > 466 µM | > 500 µM | – | – | – | – | – | – | – | – | – | – |
| Cc1ccc(NC(=O)c2ccc(CN3CCN(C)CC3)cc2)cc1Nc1nc(-c2cccnc2)cs1 | > 100 µM | 27.3 µM and > 10 µM | 19.7 µM and > 10 µM | 6.81 µM and 2.48 µM | 6.96 µM and 5.47 µM | 19.8 µM and > 10 µM | 31.1 µM and > 10 µM | 26.9 µM and > 10 µM | 11.5 µM and 7.92 µM | 21.2 µM and > 10 µM | 0.617 µM and 2.96 µM | 13.9 µM and > 10 µM | 5.94 µM and 4.99 µM | 1.7 µM and 1.13 µM | 2.25 µM and 0.4 µM | 6.91 µM and 3.65 µM | 16.6 µM and > 10 µM | 12.4 µM and 6.42 µM | 3.53 µM and 2.84 µM | 7.66 µM and 3.44 µM |
| CC1CCCCCC(=O)c2c(O)cc(O)cc2CC(=O)O1 (stereo not drawn) | > 100 µM | > 100 µM | > 100 µM | > 100 µM | > 100 µM | > 100 µM | > 100 µM | > 100 µM | > 100 µM | > 100 µM | – | – | – | – | – | – | – | – | – | – |
| O=[N+]([O-])c1ccc(C2=NCCO2)cc1 | > 100 µM | > 100 µM | > 100 µM | > 100 µM | > 100 µM | > 100 µM | > 100 µM | > 100 µM | > 100 µM | > 100 µM | > 100 µM | > 100 µM | > 100 µM | > 100 µM | > 100 µM | > 100 µM | > 100 µM | > 100 µM | > 100 µM | > 100 µM |
| Cn1ncnc1[C@@H]1c2n[nH]c(=O)c3cc(F)cc(c23)N[C@H]1c1ccc(F)cc1 | > 100 µM | > 100 µM | > 100 µM | > 100 µM | > 100 µM | > 100 µM | > 100 µM | > 100 µM | > 100 µM | > 100 µM | > 100 µM | > 100 µM | > 100 µM | > 100 µM | > 100 µM | > 100 µM | > 100 µM | 83.3 µM | > 100 µM | > 100 µM |
| C=CCC1(O)c2ccccc2C(=O)c2c(OCC(=O)OCC)ccc(OCC(=O)OCC)c21 (stereo not drawn) | > 100 µM | > 100 µM | > 100 µM | > 100 µM | > 100 µM | > 100 µM | > 100 µM | > 100 µM | > 100 µM | > 100 µM | > 100 µM | > 100 µM | > 100 µM | > 100 µM | 75.9 µM | > 100 µM | > 100 µM | > 100 µM | > 100 µM | > 100 µM |
| CCC(=C(c1ccc(OCCN2CCCCC2)cc1)c1ccc(OCCN2CCCCC2)cc1)c1ccc(Cl)cc1 | 1.07 µM | > 16.7 µM | > 16.7 µM | 5.02 µM | 9.55 µM | > 16.7 µM | > 16.7 µM | 7.87 µM | 5.09 µM | 2.65 µM | 0.4 µM | 9.5 µM | > 16.7 µM | 2.55 µM | 3.41 µM | > 16.7 µM | > 16.7 µM | 2.32 µM | 2.51 µM | 0.669 µM |
| C[N+]1([O-])C2CCC1CC(OC(=O)C(CO)c1ccccc1)C2 (stereo not drawn) | > 100 µM | > 100 µM | > 100 µM | > 100 µM | > 100 µM | > 100 µM | > 100 µM | > 100 µM | > 100 µM | > 100 µM | – | – | – | – | – | – | – | – | – | – |
| C=CCc1cccc(C=O)c1O | > 100 µM | > 100 µM | > 100 µM | > 100 µM | 41 µM | > 100 µM | > 100 µM | > 100 µM | > 100 µM | > 100 µM | 32 µM | > 100 µM | 5.86 µM | 30.1 µM | 10.6 µM | 39.5 µM | > 100 µM | 70.1 µM | > 100 µM | 39.2 µM |
| CC(C)=CCc1cc2c(cc1O)C1=C(C(=O)C3=C(NCCS3(=O)=O)C1=O)C(C=C(C)C)O2 (stereo not drawn) | > 16.7 µM | 15 µM | > 16.7 µM | 12.9 µM | 13.5 µM | > 16.7 µM | > 16.7 µM | > 16.7 µM | > 16.7 µM | > 16.7 µM | 5.02 µM | 4.34 µM | 5.58 µM | 4.22 µM | 4.43 µM | 4.75 µM | > 16.7 µM | 5.57 µM | 9.97 µM | 5.85 µM |
| Cc1ccc(N)c(S)c1 | 65.1 µM | 31.5 µM | 28.6 µM | 31.3 µM | 58.5 µM | 30.8 µM | 42 µM | 26.7 µM | 29.6 µM | 30.8 µM | – | – | – | – | – | – | – | – | – | – |
| C=C(CO)C(=O)OC1CC(=C)C2CC(O)C(C)C2C2OC(=O)C(=C)C12 (stereo not drawn) | 82.2 µM | 32 µM | > 100 µM | 37.8 µM | 62.5 µM | 69.9 µM | > 100 µM | 36.6 µM | > 100 µM | 33.4 µM | – | – | – | – | – | – | – | – | – | – |
| Nc1c(C(=O)Nc2cccc(Cl)c2)sc2nc3c(cc12)C(=O)CCC3 | > 100 µM | > 100 µM | > 100 µM | > 100 µM | > 100 µM | > 100 µM | > 100 µM | > 100 µM | > 100 µM | > 100 µM | 0.101 µM | 0.488 µM | 0.528 µM | 0.586 µM | – | > 41.3 µM | 2.09 µM | – | 0.739 µM | 0.485 µM |
